Results: ChEMBL document CHEMBL1145985, “Poly(ethylene glycol) transport forms of vancomycin: a long-lived continuous release delivery system” (J Med Chem, 2003)
Values after ≈ are worked out from the molar mass of the structure shown.

Tests used:
[1] = Solubility was measured in saline at 25 degree C; format: physicochemical
[2] = Half-life in rat plasma; format: ADME, organism-based
Mus musculus [3] = organism: Mus musculus; test: Anti-microbial activity against Staphylococcus aureus measured as percent survival of mice 1 hr post challenge; format: functional; design: concentration or dose not given beside the values
Mus musculus [4] = organism: Mus musculus; test: Anti-microbial activity against Staphylococcus aureus measured as percent survival of mice after pre challenge; format: functional
[5] = Area under the curve measured after intravenous bolus administration of 50 mg/kg of compound to rats; format: ADME, organism-based; design: dose 50 mg/kg, route intravenous; settings: rat, in vivo
[6] = Half-life in human plasma; format: ADME, cell-free
[7] = Maximum plasma concentration measured after intravenous bolus administration of 50 mg/kg of compound to rats; format: ADME, organism-based; design: dose 50 mg/kg, route intravenous; settings: rat
Rattus norvegicus [8] = test: (§1) Volume of distribution at a steady state measured after intravenous bolus administration of 50 mg/kg of compound to rats; format: ADME, organism-based; design: dose 50 mg/kg, route intravenous; settings: in vivo
Rattus norvegicus [9] = test: (§2) Clearance measured after intravenous bolus administration of 50 mg/kg of compound to rats; format: ADME, organism-based; design: dose 50 mg/kg, route intravenous; settings: in vivo
Rattus norvegicus [10] = test: (§3) Circulatory half life measured after intravenous bolus administration of 50 mg/kg of compound to rats; format: ADME, organism-based; design: dose 50 mg/kg, route intravenous; settings: in vivo
[11] = as §1; format: ADME, organism-based; design: dose 50 mg/kg, route intravenous; settings: rat, in vivo, read-out: Vss
[12] = as §2; format: ADME, organism-based; design: dose 50 mg/kg, route intravenous; settings: rat, in vivo
[13] = as §3; format: ADME, organism-based; design: dose 50 mg/kg, route intravenous; settings: rat, in vivo

With `O=C(O)COCCO` the solubility [1] was 128 mg/mL (≈ 1070 mM) and the half-life [2] was > 24 h.

`CN[C@H](CC(C)C)C(=O)N[C@H]1C(=O)N[C@@H](CC(N)=O)C(=O)N[C@H]2C(=O)N[C@H]3C(=O)N[C@H](C(=O)N[C@H](C(=O)O)c4cc(O)cc(O)c4-c4cc3ccc4O)[C@H](O)c3ccc(c(Cl)c3)Oc3cc2cc(c3OC2OC(CO)C(O)C(O)C2OC2CC(C)(NC(=O)OCc3cc(C)c(OC(=O)C(C)NC(=O)COCCO)c(C)c3)C(O)C(C)O2)Oc2ccc(cc2Cl)[C@H]1O` (some centres undefined) gave a Survival (Mus musculus [3]) of 100%, a Survival (Mus musculus [4]) of 80% and a solubility [1] of 122 mg/mL (≈ 67.8 mM). The AUC [5] was 282 µg·h/mL, the half-life [6] was > 24 h and the Cmax [7] was 47.9 µg/mL. It also gave a Vss (Rattus norvegicus [8]) of 2.6408 L/kg, a CL (Rattus norvegicus [9]) of 2.972 mL/min/kg and a half-life [2] of 16 h. The T1/2 (Rattus norvegicus [10]) was 4.09 h.

`CN[C@H](CC(C)C)C(=O)N[C@H]1C(=O)N[C@@H](CC(N)=O)C(=O)N[C@H]2C(=O)N[C@H]3C(=O)N[C@H](C(=O)N[C@H](C(=O)O)c4cc(O)cc(O)c4-c4cc3ccc4O)[C@H](O)c3ccc(c(Cl)c3)Oc3cc2cc(c3OC2OC(CO)C(O)C(O)C2OC2CC(C)(NC(=O)OCc3cc(C)c(OC(=O)COCCO)c(C)c3)C(O)C(C)O2)Oc2ccc(cc2Cl)[C@H]1O` (some centres undefined) gave a Survival (Mus musculus [3]) of 100%, a solubility [1] of 131 mg/mL (≈ 75.7 mM) and a half-life [6] of 6.6 h. The half-life [2] was 2 h.

`CN[C@H](CC(C)C)C(=O)N[C@H]1C(=O)N[C@@H](CC(N)=O)C(=O)N[C@H]2C(=O)N[C@H]3C(=O)N[C@H](C(=O)N[C@H](C(=O)O)c4cc(O)cc(O)c4-c4cc3ccc4O)[C@H](O)c3ccc(c(Cl)c3)Oc3cc2cc(c3OC2OC(CO)C(O)C(O)C2OC2CC(C)(NC(=O)OCc3cc(C)c(OC(=O)NCCOCCO)c(C)c3)C(O)C(C)O2)Oc2ccc(cc2Cl)[C@H]1O` (some centres undefined) gave a Survival (Mus musculus [3]) of 90%, a solubility [1] of 141 mg/mL (≈ 80.2 mM) and an AUC [5] of 717 µg·h/mL. The half-life [6] was > 24 h, the Cmax [7] was 54.6 µg/mL and the Vd [11] was 1.65 L/kg. The clearance ([12]; read-out: CL (converted)) was 1.17 mL/min/kg, the half-life [2] was > 24 h and the half-life [13] was 9.12 h.

Work on `CN[C@H](CC(C)C)C(=O)N[C@H]1C(=O)N[C@@H](CC(N)=O)C(=O)N[C@H]2C(=O)N[C@H]3C(=O)N[C@H](C(=O)N[C@H](C(=O)O)c4cc(O)cc(O)c4-c4cc3ccc4O)[C@H](O)c3ccc(c(Cl)c3)Oc3cc2cc(c3OC2OC(CO)C(O)C(O)C2OC2CC(C)(NC(=O)OCc3cc(C)c(OC(=O)CNC(=O)COCCO)c(C)c3)C(O)C(C)O2)Oc2ccc(cc2Cl)[C@H]1O` (some centres undefined) yielded a Survival (Mus musculus [3]) of 100%, a solubility [1] of 145 mg/mL (≈ 81.2 mM) and an AUC [5] of 386 µg·h/mL. The half-life [6] was 27 h, the Cmax [7] was 25.5 µg/mL and the Vd [11] was 2.72 L/kg. The clearance ([12]; read-out: CL (converted)) was 2.19 mL/min/kg, the half-life [2] was 19 h and the half-life [13] was 10.5 h.

For `CN[C@H](CC(C)C)C(=O)N[C@H]1C(=O)N[C@@H](CC(N)=O)C(=O)N[C@H]2C(=O)N[C@H]3C(=O)N[C@H](C(=O)N[C@H](C(=O)O)c4cc(O)cc(O)c4-c4cc3ccc4O)[C@H](O)c3ccc(c(Cl)c3)Oc3cc2cc(c3OC2OC(CO)C(O)C(O)C2OC2CC(C)(NC(=O)OCc3cc(C)c(OC(=O)NCCOCCOCCNC(=O)CNC(=O)CC(NC(=O)COCCO)C(=O)NCC(=O)NCCOCCOCCNC(=O)Oc4c(C)cc(COC(=O)NC5(C)CC(OC6C(Oc7c8cc9cc7Oc7ccc(cc7Cl)[C@@H](O)[C@@H](NC(=O)[C@@H](CC(C)C)NC)C(=O)N[C@@H](CC(N)=O)C(=O)N[C@H]9C(=O)N[C@H]7C(=O)N[C@H](C(=O)N[C@H](C(=O)O)c9cc(O)cc(O)c9-c9cc7ccc9O)[C@H](O)c7ccc(c(Cl)c7)O8)OC(CO)C(O)C6O)OC(C)C5O)cc4C)c(C)c3)C(O)C(C)O2)Oc2ccc(cc2Cl)[C@H]1O` (some centres undefined), the Survival (Mus musculus [3]) was 100%, the solubility [1] was 141 mg/mL (≈ 36 mM) and the AUC [5] was 2180 µg·h/mL. The half-life [6] was > 24 h, the Cmax [7] was 107 µg/mL and the Vss (Rattus norvegicus [8]) was 1.341 L/kg. For the same compound, the CL (Rattus norvegicus [9]) was 0.383 mL/min/kg, the half-life [2] was 36 h and the T1/2 (Rattus norvegicus [10]) was 14.2 h.

With `CN[C@H](CC(C)C)C(=O)N[C@H]1C(=O)N[C@@H](CC(N)=O)C(=O)N[C@H]2C(=O)N[C@H]3C(=O)N[C@H](C(=O)N[C@H](C(=O)O)c4cc(O)cc(O)c4-c4cc3ccc4O)[C@H](O)c3ccc(c(Cl)c3)Oc3cc2cc(c3OC2OC(CO)C(O)C(O)C2OC2CC(C)(NC(=O)OCc3cc(C)c(OC(=O)CNC(=O)CC(NC(=O)COCCO)C(=O)NCC(=O)Oc4c(C)cc(COC(=O)NC5(C)CC(OC6C(Oc7c8cc9cc7Oc7ccc(cc7Cl)[C@@H](O)[C@@H](NC(=O)[C@@H](CC(C)C)NC)C(=O)N[C@@H](CC(N)=O)C(=O)N[C@H]9C(=O)N[C@H]7C(=O)N[C@H](C(=O)N[C@H](C(=O)O)c9cc(O)cc(O)c9-c9cc7ccc9O)[C@H](O)c7ccc(c(Cl)c7)O8)OC(CO)C(O)C6O)OC(C)C5O)cc4C)c(C)c3)C(O)C(C)O2)Oc2ccc(cc2Cl)[C@H]1O` (some centres undefined) the Survival (Mus musculus [3]) was 100%, the solubility [1] was 120 mg/mL (≈ 33.6 mM) and the AUC [5] was 513 µg·h/mL. The half-life [6] was > 24 h, the Cmax [7] was 29.3 µg/mL and the Vss (Rattus norvegicus [8]) was 3.598 L/kg. For the same compound, the CL (Rattus norvegicus [9]) was 1.63 mL/min/kg, the half-life [2] was 20 h and the T1/2 (Rattus norvegicus [10]) was 12.37 h.

Work on `CN[C@H](CC(C)C)C(=O)N[C@H]1C(=O)N[C@@H](CC(N)=O)C(=O)N[C@H]2C(=O)N[C@H]3C(=O)N[C@H](C(=O)N[C@H](C(=O)O)c4cc(O)cc(O)c4-c4cc3ccc4O)[C@H](O)c3ccc(c(Cl)c3)Oc3cc2cc(c3O[C@@H]2O[C@H](CO)[C@@H](O)[C@H](O)[C@H]2O[C@H]2C[C@](C)(N)[C@H](O)[C@H](C)O2)Oc2ccc(cc2Cl)[C@H]1O` [VANCOMYCIN] yielded a Survival (Mus musculus [3]) of 100%, a Survival (Mus musculus [4]) of 0% and an AUC [5] of 78.8 µg·h/mL. For the same compound, the Cmax [7] was 162 µg/mL, the Vd [11] was 0.309 L/kg and the clearance [12] was 10.7 mL/min/kg. It also gave a half-life [13] of 0.34 h.
